Experimental data as given in patent publication US10654890B2, “Cyclic peptide derivative, method for preparing same and composition thereof” (priority 2014, dated 2020).
Where a name gives a salt, the structure may show the parent alone.

Legend:
[1] = target: acetylcholine esterase (AChE) (Homo sapiens, UniProt P22303); assay: Acetylcholine esterase inhibitory activity test; type: biochemical; conditions: 1000 nM; FIG. 11
From the text: Most of existing therapeutic agents for Alzheimer's disease have, as a target mechanism, the inhibitory activity for an acetylcholine esterase which is an enzyme for decomposing acetylcholine as a neurotransmitter. Namely, by inhibiting an acetylcholine esterase, the therapeutic agents for Alzheimer's disease increase an in vivo concentration of acetylcholine.

culture astrocyte = assay: Astrocyte proliferative activity test (BrdU cell proliferation ELISA); type: cell-based, mouse
Description: A pregnant ICR female mouse was purchased from Japan SLC, Inc., and a neonatal mouse 24 to 48 after birth was used for the test.
A neonatal ICR mouse (24 to 48 after birth) was sufficiently sterilized with 70% ethanol, immersed in 30 ml of PBS (−) in a 100 mm dish (diameter of 100 mm, Orange Scientific) for cell culture, and then placed in a clean bench. The neonatal mouse was subjected to cervical dislocation using tweezers and euthanized. Head of the neonatal mouse was open and the entire brain was removed. The obtained brain was transferred to a 100 mm dish for cell culture in which 15 ml of high glucose Dulbecco's modified Eagle medium (HG-D-MEM, Wako Pure Chemical Industries, Ltd.) is added. By using tweezers, the olfactory bulb, median eminence, and meninges were removed in the medium to obtain only a cerebrum having hippocampus. Subsequently, the obtained cerebrum was transferred to a 100 mm dish for cell culture added with 10 ml of HG-D-MEM, and using a scalpel, the cerebrum was finely cut to be 1 mm^2 or less. The cerebrum after cutting was transferred, together with the medium, to a 50 ml conical tube (TPP), and after allowing it to stand for 2 minutes, the supernatant was removed. Subsequently, the cerebrum after cutting was added with 4 ml of fresh HG-D-MEM, and after further adding 400 μl of 2.5% trypsin (SIGMA) and 40 μl of 1% DNase I (SIGMA), the cerebrum was incubated in a water bath at 37° C. for 10 minutes under intermittent stirring. Subsequently, to the cerebrum after cutting, 10 ml of HG-D-MEM (10% FBS) was added to terminate the reaction of trypsin followed by centrifuge for 3 minutes at 1,000×g using a centrifuge (H-9R, KOKUSAN Co., Ltd.). The supernatant was collected by an electric pipette, 10 ml of HG-D-MEM (10% FBS) was added to a precipitated cell mass, and pipetting using a sterile pipette was carried out several times until the cell mass is not observed. To remove the remaining cell mass from this cell dispersion, the cell dispersion was passed through a cell strainer (pore diameter of 100 μm, BD Falcon™), and the number of cells in the cell dispersion which has passed through the cell strainer was counted by using a cell counting plate. An adjustment was made with HG-D-MEM (10% FBS) such that the number of cells is 6.0×10^5 cells/ml. After the adjustment of the number of cells, the cell dispersion was seeded, in an amount of 7 ml for each, to a Poly-D-Lysine Cellware 100 mm Dish (PDL 100 mm dish, BD Falcon™). 96 Hours after the seeding, the medium was removed once using an aspirator, and after briefly washing the inside of a 100 mm PDL dish with 10 ml of PBS (−), the medium exchange was carried out by newly adding 7 ml of HG-D-MEM. The above method and the astrocyte preparation described below were carried out based on the method of McCarthy and de Vellis (1980, Non Patent Literature 30).
72 Hours after the medium exchange, the 100 mm PDL dish seeded with the cell broth was removed from the incubator, and tightly covered using a parafilm and fixed by overlaying 3 to 4 dishes. The resultant was cultured by shaking using a bioshaker (MULTI SHAKER MMS, INCUBATOR FMS/EYELA) under a condition including 37° C., 100 rpm, and 20 hours, and the neuronal cells, cell debris, dead cells or the like were liberated. At that time, in the inside the 100 mm PDL dish, only the astrocyte as a glial cell in central nervous system other than neuron was adhered (hereinbelow, described as culture astrocyte). After the shaking, the 100 mm PDL dish was transferred to a clean bench, the supernatant was removed by an aspirator and washed with 10 ml of PBS (−), and after adding 1 ml of 2.5% trypsin (SIGMA) using a Pasteur pipette, the dish was left to stand in an incubator for 10 minutes. The 100 mm PDL dish was again brought back to the clean bench, and added with 10 ml of Dulbecco's modified Eagle medium (D-MEM, Wako Pure Chemical Industries, Ltd.) (10% FBS). […]

[2] = system: normal human dermal fibroblasts (NHDF); assay: Cell proliferation test, normal human dermal fibroblasts; type: cell-based
Description: To see whether or not the astrocyte proliferation accelerating activity of the cyclic peptide derivative is a specific proliferative activity that is limited only to an astrocyte or it is based on a common cell proliferative activity, investigations were made by using normal human dermal fibroblasts (NHDF), human liver cancer cells (HepG2), and human leukemia cells (K562).
Seeding of each cell on a 96 well plate was carried out by adding 100 μl of a cell suspension in which normal human dermal fibroblasts are prepared at 2.5×10^4 cells/ml or human liver cancer cells and human leukemia cells are prepared at 5×10^4 cells/ml. Since the cyclic peptide derivative is added after dissolving it in PBS (−), only PBS (−) was added as a control.

Sequence of acetylcholine esterase (AChE) (P22303 32-614): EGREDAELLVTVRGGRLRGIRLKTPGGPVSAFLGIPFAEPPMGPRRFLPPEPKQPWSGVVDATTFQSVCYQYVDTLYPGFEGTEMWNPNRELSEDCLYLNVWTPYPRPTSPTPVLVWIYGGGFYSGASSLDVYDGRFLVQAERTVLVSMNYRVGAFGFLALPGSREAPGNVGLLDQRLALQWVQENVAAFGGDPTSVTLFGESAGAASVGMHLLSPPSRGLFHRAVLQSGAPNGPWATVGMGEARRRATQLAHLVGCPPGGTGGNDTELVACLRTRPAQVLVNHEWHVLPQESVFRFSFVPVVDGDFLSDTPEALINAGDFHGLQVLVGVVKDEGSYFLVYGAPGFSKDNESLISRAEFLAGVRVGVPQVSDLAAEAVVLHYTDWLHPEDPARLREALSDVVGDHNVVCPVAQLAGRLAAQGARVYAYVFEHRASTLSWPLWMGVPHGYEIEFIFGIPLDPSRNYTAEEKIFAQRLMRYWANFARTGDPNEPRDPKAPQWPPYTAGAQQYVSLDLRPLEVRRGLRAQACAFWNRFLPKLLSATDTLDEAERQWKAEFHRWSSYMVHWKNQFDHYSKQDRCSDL

Compound | AChE inhibitory activity [1] | astrocyte proliferation compared to the control group (culture astrocyte; 25 μM, FIG. 7) | astrocyte proliferation accelerating activity (culture astrocyte; 0.1, 1, 5, 10, 25, and 50 μM, 24 hours exposure, FIG. 6) | astrocyte proliferative activity (culture astrocyte; extracts and fractions of the isolation and purification steps, listed as F3-10-4-5-3) | astrocyte proliferative activity (culture astrocyte; extracts and fractions of the isolation and purification steps, listed as F-3-10-4-5-3) | cytotoxicity for normal cells [2] | cell proliferation rate ([2]; 25 μM) | proliferation of NHDF cells compared to the group with no addition ([2]; 25 μM) | astrocyte proliferative activity (culture astrocyte; 25 μM, FIG. 8 and FIG. 9)
CCC1(C)Oc2cc(ccc2O)C(O)C(NC)C(=O)NC(C(C)C)C(=O)NC1C(=O)NC(CCC(=O)O)C(=O)O (stereo not drawn) [cyclic peptide derivative] | absolutely no AChE activity was observed | about 12 times | observed with concentration dependency | significant astrocyte proliferative activity | containing the components with an astrocyte proliferative activity | low | ~80% | inhibited in a significant sense | 
COc1cc2c(cc1OC)C(=O)C(CC1CCN(Cc3ccccc3)CC1)C2 (stereo not drawn) [donepezil hydrochloride, reference compound] |  |  |  |  |  |  |  |  | no significant astrocyte proliferative activity was observed
